Test results from patent US4997828A, “Method of weight control by low level administration of cobalt protoporphyrin or cobalt mesoporphyrin” (The Rockefeller University, priority 1989, dated 1991).
Entries after “also recorded” stand apart in the source; their conditions may differ.

Legend:
[1] = Weight control and P/F ratio of animals, general statements; type: in vivo; details: for Improved P/F ratio, lowest dosage / Weight control activity, lowest dosage: decreasing dosage
endocrine system [2] = experiment: Endocrine suppression activity in animals, general statements; type: in vivo
endocrine system [3] = details: cited from earlier work; for Endocrine suppression, weight control and P/F ratio: levels of administration described in the copending application; for Production of gonadal hormones / Production of thyroid hormones: parenteral administration, copending application
Insulin = Insulin concentration in blood of subcutaneously treated rats (Example 1); type: in vivo, Sprague-Dawley rat; details: Day 124; 10 serial doses of CoPP 1 μmol/kg b.w. s.c.; n = 6; control 156 ± 47.6
Description: (§1) Adult male Sprague-Dawley rats (≈250 g) were injected subcutaneously with CoPP 1 μmol/kg b.w. (12 rats) or vehicle (12 rats) on day 0. Thereafter, injections (Vertical arrows in FIG. 1) were repeated weekly until 10 doses had been given. Animals were allowed Purina rat chow and water ad libitum and animal weights were recorded thrice weekly; means are presented in FIG. 1 ( is control and treated animals). On day 71, 6 control rats and 6 CoPP-treated rats were sacrificed, blood collected for hormone determinations and hepatic mitochondrial and microsomal fractions prepared for biochemical assays. These procedures were repeated at day 124 for the remainder of the animals.
(§2) The effects of 10 serial doses of CoPP 1 μmol/kg b.w. on weight,
(§3) *n = 12; for all other parameters, n = 6 animals per treatment.

[4] = Body weight of adult male rats after intraventricular injection, dose response (Example 3); type: in vivo, rat
Description: Adult male rats were anesthetized during stereotaxic placement of chronic indwelling catheters into the third ventricle of the brain. After 3-4 days post-operative recovery, animals were injected intraventricularly (i/vt) with small volumes (<10μl) of vehicle or CoPP 0.1, 0.2 (o) or 0.4 μmol/kg b.w.

hormone concentrations = experiment: Hormone concentrations of treated rats, overall statement (Example 1); type: in vivo, Sprague-Dawley rat
Description: as §1

Heme oxygenase = experiment: Hepatic heme oxygenase activity of treated rats (Example 1); type: in vivo, Sprague-Dawley rat; details: Day 71; 10 serial doses of CoPP 1 μmol/kg b.w. s.c.; n = 6; control 1.85 ± 0.15
Description: as §1, §2, §3

[5] = test system: Ethylmorphine demethylase; experiment: Hepatic ethylmorphine demethylase activity of treated rats (Example 1); type: in vivo, Sprague-Dawley rat; details: Day 71; 10 serial doses of CoPP 1 μmol/kg b.w. s.c.; n = 6; control 0.43 ± 0.05
Description: as §1, §2, §3

Cytochrome P-450 [6] = experiment: Hepatic cytochrome P-450 content of treated rats (Example 1); type: in vivo, Sprague-Dawley rat; details: Day 71; 10 serial doses of CoPP 1 μmol/kg b.w. s.c.; n = 6; control 1.06 ± 0.23
Description: as §1, §2, §3

LH = LH concentration in blood of subcutaneously treated rats (Example 1); type: in vivo, Sprague-Dawley rat; details: Day 124; 10 serial doses of CoPP 1 μmol/kg b.w. s.c.; n = 6; control 21.1 ± 3.29
Description: as §1, §2, §3

[7] = test system: 7-Ethoxycoumarin de-ethylase; experiment: Hepatic 7-ethoxycoumarin de-ethylase activity of treated rats (Example 1); type: in vivo, Sprague-Dawley rat; details: Day 71; 10 serial doses of CoPP 1 μmol/kg b.w. s.c.; n = 6; control 0.41 ± 0.04
Description: as §1, §2, §3

[8] = test system: heme pathway and cytochrome P-450-dependent enzyme activities; experiment: Heme pathway and cytochrome P-450-dependent enzyme activities of treated rats, overall statement (Example 1); type: in vivo, Sprague-Dawley rat; details: CoPP 1 μmol/kg b.w. s.c. weekly, 10 doses
Description: as §1

Aniline hydroxylase = experiment: Hepatic aniline hydroxylase activity of treated rats (Example 1); type: in vivo, Sprague-Dawley rat; details: Day 71; 10 serial doses of CoPP 1 μmol/kg b.w. s.c.; n = 6; control 59 ± 3.48
Description: as §1, §2, §3

[9] = Body weight of adult male Beagle dogs after weekly intramuscular injections (Example 2); type: in vivo, Beagle dog
Description: (§4) Adult male Beagle dogs (≈1 year) were housed in single runs with free access to Purina dog chow and water. On day 0, 3 animals were injected intramuscularly in the upper posterolateral aspect of the hindlimb with CoPP 2.5 μmol/kg b.w., and 3 animals with control vehicle. Injections (Vertical arrows in FIG. 2) were repeated weekly, in alternating hindlimbs, until a: total of 9 doses had been given. Animal weights were recorded thrice weekly and means are presented in FIG. 2 ( is control and is treated animals).

testosterone [10] = experiment: Serum testosterone of male Beagle dogs after weekly intramuscular injections (Example 2); type: in vivo, Beagle dog; details: for Testosterone (serum): n = 3
Description: as §4
The effects of 9 serial doses of CoPP 2.5 μmol/kg b.w. on serum
testosterone concentrations in male Beagle dogs.

[11] = Body weight and naso-anal length of adult male rats after weekly subcutaneous injections (Example 1); type: in vivo, Sprague-Dawley rat
Description: as §1, §2, §3
**As calculated by Student's Ttest. The only significant changes are in […]

[12] = test system: Aryl hydrocarbon hydroxylase; experiment: Hepatic aryl hydrocarbon hydroxylase activity of treated rats (Example 1); type: in vivo, Sprague-Dawley rat; details: Day 71; 10 serial doses of CoPP 1 μmol/kg b.w. s.c.; n = 6; control 275 ± 24
Description: as §1, §2, §3

Testosterone [13] = experiment: Testosterone concentration in blood of subcutaneously treated rats (Example 1); type: in vivo, Sprague-Dawley rat; details: 10 serial doses of CoPP 1 μmol/kg b.w. s.c., n = 6
Description: as §1, §2, §3

[14] = Prolonged body weight loss after single intraventricular treatment (Example 5); type: in vivo, rat; details: single i/vt CoPP 0.2 or 0.4 μmol/kg b.w.; n=4; FIG. 5
Excerpt: The prolonged loss of body weight following single i/vt treatments with CoPP 0.2 or 0.4 μmol/kg b.w. are contrasted with that of vehicle-treated rats in FIG. 5 (n=4).

[15] = Body weight of adult male rats treated intraventricularly (Example 4); type: in vivo, rat; details: i/vt CoPP 0.4 μmol/kg b.w.; 5 animals; FIG. 4
Excerpt: FIG. 4 depicts the means ±SEM of the body weights of 5 adult male rats treated i/vt with vehicle and 5 animals with CoPP 0.4 μmol/kg b.w. ( , lower panel).

[16] = test system: δ-Aminolevulinic acid synthase; experiment: Hepatic δ-aminolevulinic acid synthase activity of treated rats (Example 1); type: in vivo, Sprague-Dawley rat; details: Day 71; 10 serial doses of CoPP 1 μmol/kg b.w. s.c.; n = 6; control 0.29 ± 0.02
Description: as §1, §2, §3

cytochrome P-450 [17] = details: administration to animals; lowest level 25 μm/kg body weight; cited from earlier work
testosterone [18] = experiment: Testosterone concentration of adult male rats treated intraventricularly (Example 4); type: in vivo, rat; details: i/vt CoPP 0.4 μmol/kg b.w.; 5 animals; FIG. 4
[19] = similar administration to FIGS. 1-5
[20] = at about 10 μm/kg b.w., say 9.8 μm/kg b.w.
[21] = preferred range 0.1 to 0.3 μm/kg b.w.
[22] = CoPP 1 μmol/kg b.w. s.c. weekly, 10 doses

CCC1=C(C)c2cc3[n-]c(cc4[n-]c(cc5nc(cc1n2)C(C)=C5CC)c(C)c4CCC(=O)[O-])c(CCC(=O)[O-])c3C.[Co+2].[H+].[H+] [CoMP, cobalt mesoporphyrin]
Improved P/F ratio, lowest dosage [1]: continues even down to as low as 0.1 μm/kg b.w. | Weight control activity, lowest dosage [1]: continues even down to as low as 0.1 μm/kg b.w. | P/F ratio [1, 19]: improved P/F ratios | Results relative to those illustrated in the figures for CoPP [1, 19]: Comparable results | Endocrine suppression activity (endocrine system [2]; at 4 μm/kg b.w.): effectively disappeared | Endocrine suppression activity (endocrine system [2]; [20]): negligible | Endocrine suppression activity (endocrine system [2]; dependence on dosage): declines as the dosage is decreased | Endocrine suppression activity (endocrine system [2]; [21]): substantially no endocrine suppression activity | Endocrine suppression, weight control and P/F ratio (endocrine system [3]): endocrine suppression, weight control and improved P/F ratio all take place simultaneously | Production of gonadal hormones (endocrine system [3]): limit the production of gonadal hormones | Production of thyroid hormones (endocrine system [3]): suppress the production of thyroid hormones

C=CC1=C(C)c2cc3[n-]c(cc4nc(cc5[n-]c(cc1n2)c(C)c5CCC(=O)[O-])C(CCC(=O)[O-])=C4C)c(C)c3C=C.[Co+2].[H+].[H+] [CoPP, cobalt protoporphyrin]
Insulin (Insulin): 191 ± 43.6 μU/ml | Weight loss (FIG. 3) ([4]; adult male rats, intraventricular administration, Example 3): weight loss achieved | Effects on body weight, dose dependence ([4]; i/vt CoPP 0.1, 0.2 or 0.4 μmol/kg b.w., 4-6 animals per group): dose responsive | i/vt dosage relative to s/c dosage required to elicit the same changes (fold less) ([4]; intraventricular versus s/c administration): 50-100 fold less | Difference in hormone concentrations vs control (hormone concentrations; [22]): no significant differences | Hormone concentration change (FIG. 1 with Table I) (hormone concentrations; adult male rats, Example 1): without decrease in hormone concentration | Heme oxygenase (Heme oxygenase): 2.08 ± 0.21 nmol bilirubin/mg prot/hr | Ethylmorphine demethylase [5]: 0.49 ± 0.04 μmol form/mg prot/hr | Cytochrome P-450 (Cytochrome P-450 [6]): 0.70 ± 0.12 nmol/mg protein | LH (LH): 24.2 ± 6.14 ng/mL | 7-Ethoxycoumarin de-ethylase [7]: 0.53 ± 0.03 μmol/mg prot/hr | Difference in heme pathway and cytochrome P-450-dependent enzyme activities vs control [8]: no significant differences | Aniline hydroxylase (Aniline hydroxylase): 74 ± 4.62 nmol p-aminop./mg prot/hr | Body weight change (FIG. 2) ([9]; adult male dogs, Example 2): decrease in body weight | Mean weights ([9]; after first 3 weeks, CoPP 2.5 μmol/kg b.w. i.m. weekly): progressively decreased thereafter to a nadir at day 74 | Recovery of body weight ([9]; by day 84, CoPP 2.5 μmol/kg b.w. i.m. weekly, 9 doses): returned to their pre-treatment weights | Mean weights ([9]; first 3 weeks of treatment, CoPP 2.5 μmol/kg b.w. i.m. weekly): unchanged | Loss of body weight ([9]; nadir at day 74, CoPP 2.5 μmol/kg b.w. i.m. weekly, 9 doses): approximately 25 % of their body weight | Improved P/F ratio, lowest dosage [1]: continues even down to as low as 0.1 μm/kg b.w. | Weight control activity, lowest dosage [1]: continues even down to as low as 0.1 μm/kg b.w. | P/F ratio [1, 19]: improved P/F ratios | Endocrine suppression activity (endocrine system [2]; at 4 μm/kg b.w.): effectively disappeared | Endocrine suppression activity (endocrine system [2]; [20]): negligible | Endocrine suppression activity (endocrine system [2]; dependence on dosage): declines as the dosage is decreased | Endocrine suppression activity (endocrine system [2]; [21]): substantially no endocrine suppression activity | Testosterone (serum) (testosterone [10]; Day 0 (before start of the experiment), CoPP 2.5 μmol/kg b.w. group, control 1.82 ± 0.65): 2.03 ± 0.57 ng/mL | Testosterone (serum) (testosterone [10]; Day 62, 9 serial doses of CoPP 2.5 μmol/kg b.w. i.m. weekly, control 1.73 ± 0.52): 2.15 ± 1.52 ng/mL | Testosterone (serum) (testosterone [10]; Day 112, 9 serial doses of CoPP 2.5 μmol/kg b.w. i.m. weekly, control 1.67 ± 0.03): 1.92 ± 0.83 ng/mL | Testosterone level change (FIG. 2 with Table II) (testosterone [10]; adult male dogs, Example 2): no decrease in testosterone levels | Effect on testosterone concentrations (testosterone [10]; days 62 and 112, CoPP 2.5 μmol/kg b.w. i.m.): no effect | Difference in weights of control and CoPP-treated rats [11, 22]: highly significant | Body weight ([11]; Day 71, 10 serial doses of CoPP 1 μmol/kg b.w. s.c. weekly, n = 12, control 568 ± 16): 442 ± 5 g | Body weight ([11]; Day 124, 10 serial doses of CoPP 1 μmol/kg b.w. s.c., n = 6, control 633 ± 39): 541 ± 12 g | Body weight change (FIG. 1) ([11]; adult male rats, Example 1): decrease in body weight | Aryl hydrocarbon hydroxylase [12]: 291 ± 28 pmol 80HBP/mg prot/hr | Testosterone (Testosterone [13]; Day 71, control 1.96 ± 0.29): 1.72 ± 0.23 ng/mL | Testosterone (Testosterone [13]; Day 124, control 2.64 ± 0.25): 3.59 ± 0.90 ng/mL | Endocrine suppression, weight control and P/F ratio (endocrine system [3]): endocrine suppression, weight control and improved P/F ratio all take place simultaneously | Production of gonadal hormones (endocrine system [3]): limit the production of gonadal hormones | Production of thyroid hormones (endocrine system [3]): suppress the production of thyroid hormones | Loss of body weight after single i/vt treatment [14]: prolonged weight loss; also recorded: prompt decrease in weight | Weight differential between treated and untreated animals [14]: maintained for the duration of the treatment | Weight loss [15]: typical weight loss | δ-Aminolevulinic acid synthase [16]: 0.30 ± 0.01 μmol ALA/mg prot/90' | Cytochrome P-450 content of the liver (cytochrome P-450 [17]): deplete the cytochrome P-450 content of the liver | Testosterone concentrations vs vehicle-treated rats (testosterone [18]): without significant changes in testosterone concentration; also recorded: not significantly different
